Laboratory results as given in patent publication US20120252852A1 (SANOFI, priority 2011, published 2012).

Legend:
[1] = Level of impurities in dependency on Otamixaban concentration and autoclaving (HPLC); type: physicochemical; conditions: pH 4.2; 50 mg/mL; vial 5 mL; 20 min 123° C.; 3 autoclaving
Protocol: Liquid pharmaceutical compositions were prepared containing 1, 5 or 50 mg/mL
The appropriate pH value was adjusted by using sodium hydroxide solution (1 M sodium hydroxide) or diluted hydrochloric acid (1 M hydrochloric acid).

[2] = Level of impurities in dependency on pH and storage time (1 mg/mL, autoclaved one time, stored at 40° C. and 75% RH, HPLC); type: physicochemical
Protocol: The appropriate pH value was adjusted by using sodium hydroxide solution (1 M sodium hydroxide) or diluted hydrochloric acid (1 M hydrochloric acid). The prepared vials were autoclaved one time and were stored at 40° C. and 75% RH (relative humidity).

[3] = Level of impurities in dependency on citric acid (22.8 mmol/L) and storage time (1 mg/mL, autoclaved once, 40° C. and 75% RH, HPLC); type: physicochemical
Protocol: The prepared vials were autoclaved once and were stored at 40° C. and 75% RH (relative humidity).

[4] = molecular target: free factor Xa (Homo sapiens, UniProt P00742); conditions: cited from earlier work
[5] = molecular target: factor Xa assembled in the prothrombinase complex (Factor Xa, Factor Va, calcium and phospholipid) (Homo sapiens, UniProt P00742); conditions: cited from earlier work
[6] = system: thrombosis; conditions: rodent, canine and porcine models; cited from earlier work
[7] = humans; cited from earlier work
[8] = system: prothrombin fragments 1+2; conditions: highest dose regimen; versus unfractionated heparin; cited from earlier work
[9] = molecular target: T1, factor Xa (Homo sapiens, UniProt P00742); conditions: patients with stable coronary artery disease taking usual comedication; cited from earlier work
T1 construct: host or cells: blood of patients (in vivo / ex vivo)
T1 sequence (P00742 235-488 limits assumed): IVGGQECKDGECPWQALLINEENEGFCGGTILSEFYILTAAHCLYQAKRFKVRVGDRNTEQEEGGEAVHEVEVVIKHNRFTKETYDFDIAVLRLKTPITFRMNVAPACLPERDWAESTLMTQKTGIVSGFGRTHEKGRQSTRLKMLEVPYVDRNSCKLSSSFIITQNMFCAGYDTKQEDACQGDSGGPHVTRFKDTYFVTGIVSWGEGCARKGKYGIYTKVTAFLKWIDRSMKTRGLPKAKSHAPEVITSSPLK
T1 sequence (P00742 41-179 limits assumed): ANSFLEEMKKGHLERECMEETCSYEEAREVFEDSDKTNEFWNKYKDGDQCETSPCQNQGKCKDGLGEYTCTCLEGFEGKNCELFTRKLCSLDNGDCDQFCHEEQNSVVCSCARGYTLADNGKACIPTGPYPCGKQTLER

Sequence of free factor Xa (P00742 235-488 limits assumed): as the sequence (P00742 235-488 limits assumed) above
Sequence of free factor Xa (P00742 41-179 partner limits assumed): as the sequence (P00742 41-179 limits assumed) above
Sequence of factor Xa assembled in the prothrombinase complex (Factor Xa, Factor Va, calcium and phospholipid) (P00742 235-488 limits assumed): as the sequence (P00742 235-488 limits assumed) above
Sequence of factor Xa assembled in the prothrombinase complex (Factor Xa, Factor Va, calcium and phospholipid) (P00742 41-179 limits assumed): as the sequence (P00742 41-179 limits assumed) above
Sequence of factor Xa assembled in the prothrombinase complex (Factor Xa, Factor Va, calcium and phospholipid) (P12259 29-737 partner limits assumed): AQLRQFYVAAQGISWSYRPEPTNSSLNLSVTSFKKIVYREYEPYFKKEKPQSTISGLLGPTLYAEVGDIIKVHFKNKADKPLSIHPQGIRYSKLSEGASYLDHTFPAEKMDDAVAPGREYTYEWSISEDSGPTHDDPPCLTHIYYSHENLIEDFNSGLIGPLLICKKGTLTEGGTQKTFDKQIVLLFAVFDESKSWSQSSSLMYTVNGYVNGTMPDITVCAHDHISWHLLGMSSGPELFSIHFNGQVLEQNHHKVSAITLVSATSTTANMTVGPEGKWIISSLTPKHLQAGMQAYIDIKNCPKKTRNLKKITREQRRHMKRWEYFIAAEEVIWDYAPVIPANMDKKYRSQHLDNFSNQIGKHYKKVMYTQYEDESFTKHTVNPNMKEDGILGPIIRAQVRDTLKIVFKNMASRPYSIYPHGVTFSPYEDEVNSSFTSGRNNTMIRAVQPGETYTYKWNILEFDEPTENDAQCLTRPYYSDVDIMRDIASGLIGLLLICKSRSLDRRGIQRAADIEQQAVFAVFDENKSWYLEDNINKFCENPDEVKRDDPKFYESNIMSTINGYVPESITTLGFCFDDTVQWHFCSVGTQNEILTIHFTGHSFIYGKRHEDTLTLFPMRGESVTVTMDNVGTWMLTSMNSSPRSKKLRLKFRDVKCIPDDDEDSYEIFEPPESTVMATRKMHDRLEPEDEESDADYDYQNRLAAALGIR
Sequence of factor Xa assembled in the prothrombinase complex (Factor Xa, Factor Va, calcium and phospholipid) (P12259 1574-2224 partner limits assumed): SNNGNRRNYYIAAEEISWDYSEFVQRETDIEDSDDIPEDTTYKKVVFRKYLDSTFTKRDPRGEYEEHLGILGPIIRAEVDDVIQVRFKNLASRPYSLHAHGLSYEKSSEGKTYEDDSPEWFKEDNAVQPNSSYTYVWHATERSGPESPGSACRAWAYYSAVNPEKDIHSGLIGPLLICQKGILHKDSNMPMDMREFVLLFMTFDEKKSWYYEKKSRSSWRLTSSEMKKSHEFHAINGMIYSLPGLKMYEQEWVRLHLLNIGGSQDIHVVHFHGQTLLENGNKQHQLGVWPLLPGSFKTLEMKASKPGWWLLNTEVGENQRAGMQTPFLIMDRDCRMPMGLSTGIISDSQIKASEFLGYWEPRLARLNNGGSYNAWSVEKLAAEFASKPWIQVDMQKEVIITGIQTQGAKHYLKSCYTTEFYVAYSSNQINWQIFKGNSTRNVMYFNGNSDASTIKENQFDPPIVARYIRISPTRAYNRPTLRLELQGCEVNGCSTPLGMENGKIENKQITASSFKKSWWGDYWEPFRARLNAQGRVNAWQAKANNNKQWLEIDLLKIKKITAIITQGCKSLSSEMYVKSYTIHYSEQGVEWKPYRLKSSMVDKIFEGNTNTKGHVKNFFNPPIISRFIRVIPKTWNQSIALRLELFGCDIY

COC(=O)[C@H](Cc1cccc(C(=N)N)c1)[C@@H](C)NC(=O)c1ccc(-c2cc[n+]([O-])cc2)cc1 (mixture of isomers) [Otamixaban, Methyl (2R,3R)-2-{3-[amino(imino)methyl]benzyl}-3-{[4-(1-oxidopyridin-4-yl)benzoyl]amino}butanoate]
Increase of Formula III (carbamoyl-benzyl butyric acid methyl ester) [1]: 2.7%
Level of Formula II versus pH over storage time ([2]; 40° C. and 75% RH): increased faster with lower pH
Levels of Formula III versus pH over storage time ([2]; 40° C. and 75% RH): parallel at different pH values
Increase of Formula II (carbamimidoyl-benzyl butyric acid) ([2]; pH 2.5, storage 0 months): 0.33%
Increase of Formula II (carbamimidoyl-benzyl butyric acid) ([2]; pH 2.5, storage 1 month): 1.47%
Increase of Formula II (carbamimidoyl-benzyl butyric acid) ([2]; pH 2.5, storage 3 months): 3.73%
Increase of Formula II (carbamimidoyl-benzyl butyric acid) ([2]; pH 2.5, storage 6 months): 7.10%
Increase of Formula II (carbamimidoyl-benzyl butyric acid) ([2]; pH 3.0, storage 0 months): 0.18%
Increase of Formula II (carbamimidoyl-benzyl butyric acid) ([2]; pH 3.0, storage 1 month): 0.58%
Increase of Formula II (carbamimidoyl-benzyl butyric acid) ([2]; pH 3.0, storage 3 months): 1.39%
Increase of Formula II (carbamimidoyl-benzyl butyric acid) ([2]; pH 3.0, storage 6 months): 2.61%
Increase of Formula II (carbamimidoyl-benzyl butyric acid) ([2]; pH 3.2, storage 0 months): 0.15%
Increase of Formula III (carbamoyl-benzyl butyric acid methyl ester) ([2]; pH 3.2, storage 0 months): 0.76%
Increase of Formula II (carbamimidoyl-benzyl butyric acid) ([2]; pH 3.2, storage 1 month): 0.41%
Increase of Formula III (carbamoyl-benzyl butyric acid methyl ester) ([2]; pH 3.2, storage 1 month): 0.85%
Increase of Formula II (carbamimidoyl-benzyl butyric acid) ([2]; pH 3.2, storage 3 months): 0.93%
Increase of Formula III (carbamoyl-benzyl butyric acid methyl ester) ([2]; pH 3.2, storage 3 months): 1.00%
Increase of Formula II (carbamimidoyl-benzyl butyric acid) ([2]; pH 3.2, storage 6 months): 1.74%
Increase of Formula III (carbamoyl-benzyl butyric acid methyl ester) ([2]; pH 3.2, storage 6 months): 1.24%
Increase of Formula II (carbamimidoyl-benzyl butyric acid) ([2]; pH 3.5, storage 0 months): 0.12%
Increase of Formula II (carbamimidoyl-benzyl butyric acid) ([2]; pH 3.5, storage 1 month): 0.27%
Increase of Formula II (carbamimidoyl-benzyl butyric acid) ([2]; pH 3.5, storage 3 months): 0.55%
Increase of Formula II (carbamimidoyl-benzyl butyric acid) ([2]; pH 3.5, storage 6 months): 0.99%
Increase of Formula II (carbamimidoyl-benzyl butyric acid) ([2]; pH 3.7, storage 0 months): 0.11%
Increase of Formula II (carbamimidoyl-benzyl butyric acid) ([2]; pH 3.7, storage 1 month): 0.22%
Increase of Formula II (carbamimidoyl-benzyl butyric acid) ([2]; pH 3.7, storage 3 months): 0.42%
Increase of Formula II (carbamimidoyl-benzyl butyric acid) ([2]; pH 3.7, storage 6 months): 0.72%
Increase of Formula II (carbamimidoyl-benzyl butyric acid) ([2]; pH 4.0, storage 0 months): 0.12%
Increase of Formula II (carbamimidoyl-benzyl butyric acid) ([2]; pH 4.0, storage 1 month): 0.18%
Increase of Formula II (carbamimidoyl-benzyl butyric acid) ([2]; pH 4.0, storage 3 months): 0.32%
Increase of Formula II (carbamimidoyl-benzyl butyric acid) ([2]; pH 4.0, storage 6 months): 0.52%
Increase of Formula II (carbamimidoyl-benzyl butyric acid) ([2]; pH 4.2, storage 0 months): 0.13%
Increase of Formula II (carbamimidoyl-benzyl butyric acid) ([2]; pH 4.2, storage 1 month): 0.18%
Increase of Formula II (carbamimidoyl-benzyl butyric acid) ([2]; pH 4.2, storage 3 months): 0.27%
Increase of Formula II (carbamimidoyl-benzyl butyric acid) ([2]; pH 4.2, storage 6 months): 0.43%
Increase of Formula II (carbamimidoyl-benzyl butyric acid) ([2]; pH 4.5, storage 0 months): 0.15%
Increase of Formula II (carbamimidoyl-benzyl butyric acid) ([2]; pH 4.5, storage 1 month): 0.20%
Increase of Formula II (carbamimidoyl-benzyl butyric acid) ([2]; pH 4.5, storage 3 months): 0.30%
Increase of Formula II (carbamimidoyl-benzyl butyric acid) ([2]; pH 4.5, storage 6 months): 0.44%
Increase of Formula II (carbamimidoyl-benzyl butyric acid) ([2]; pH 4.7, storage 0 months): 0.20%
Increase of Formula II (carbamimidoyl-benzyl butyric acid) ([2]; pH 4.7, storage 1 month): 0.25%
Increase of Formula II (carbamimidoyl-benzyl butyric acid) ([2]; pH 4.7, storage 3 months): 0.36%
Increase of Formula II (carbamimidoyl-benzyl butyric acid) ([2]; pH 4.7, storage 6 months): 0.52%
Total impurities ([3]; pH 3.0/3.1 (start/1 month), 1 month): 1.33%
Total impurities ([3]; pH 3.0/3.1 (start/1 month), start): 0.87%
Total impurities ([3]; pH 3.6/3.6 (start/1 month), 1 month): 1.06%
Total impurities ([3]; pH 3.6/3.6 (start/1 month), start): 0.83%
Total impurities ([3]; pH 4.0/4.1 (start/1 month), 1 month): 1.17%
Total impurities ([3]; pH 4.0/4.1 (start/1 month), start): 0.98%
Total impurities ([3]; pH 4.6/4.6 (start/1 month), 1 month): 1.75%
Total impurities ([3]; pH 4.6/4.6 (start/1 month), start): 1.51%
Total impurities ([3]; pH 5.1/5.1 (start/1 month), 1 month): 3.80%
Total impurities ([3]; pH 5.1/5.1 (start/1 month), start): 3.57%
Total impurities ([3]; pH 6.1/6.1 (start/1 month), 1 month): 28.16%
Total impurities ([3]; pH 6.1/6.1 (start/1 month), start): 27.12%
Inhibition of free factor Xa [4]: inhibited
Inhibition of factor Xa assembled in the prothrombinase complex [5]: inhibited
Efficacy in models of thrombosis [6]: highly efficacious
Clinical efficacy, safety and tolerability [7]: efficacious, safe and well tolerated
Reduction of prothrombin fragments 1+2 [8]: reduced prothrombin fragments 1+2 significantly more than unfractionated heparin
Factor Xa inhibition in patients [9]: dose-dependent, rapid direct factor Xa inhibition
